# Experimental data as given in publication PMC12557383, “Development of a Potent and Functional In Vivo Peptide Competitive Inhibitor for the Toxin MazF” (Journal of Medicinal Chemistry, 2025).
# Key:
# Assay type in all cases: cell-based, Escherichia coli
# [1] = system: E. coli cells superexpressing MazF; experiment: Resazurin assay (redox state), coexpression with MazF; conditions: cells coexpressing MazF and recombinant SamF, 1 h MazF expression, 75 μg/mL resazurin
# Protocol: This experiment was conducted as described above (“bacterial cell growth assay”). However, 1 h after mazF induction with 1% of L-arabinose, approximately 40 millions of cells in 200 μL of LB (with antibiotics, IPTG and L-arabinose) were taken and incubated with 75 μg/mL of resazurin (final concentration). The experiment was performed in a 96-well plate in triplicate. The plate was incubated at 37 °C/70 rpm, and the color development, due to resazurin reduction, was monitored every hour visually and by scanning the dye absorbance between 500–700 nm.
# [2] = system: E. coli cells expressing MazF; experiment: Antibiotic survival assay (ciprofloxacin), coexpression with MazF; conditions: 4 μg/mL ciprofloxacin, up to 4 h; toxin induced 1 h before antibiotic
# Protocol: This experiment was conducted as described above (“bacterial growth assay”) until the induction of the toxin. However, 1 h after mazF induction with 0.5% of L-arabinose, approximately two million cells were removed from each culture and diluted with LB (final volume of 10 mL) supplemented with IPTG, L-arabinose, and antibiotics for plasmid maintenance. Here, an aliquot of 1 mL was withdrawn, which represents time zero (before the implementation of antibiotic stress). Cells were then exposed to 4 μg/mL ciprofloxacin and incubated at 37 °C/215 rpm for 4 h. Aliquots of 1 mL were taken at intervals of 1 h and washed three times with LB medium (5,000 rpm/5 min/4 °C) to remove the antibiotic. After the last wash step, the culture medium was removed, and the cell pellet was resuspended in 100 μL of LB medium. 10-fold serial dilutions were made from this solution using LB medium, and 2 μL of each dilution was spotted on solid LB-agar supplemented with antibiotics for the maintenance of plasmids. Plates were incubated at 37 °C for 24 h and photographed. The experiment was repeated at least three times.
# [3] = system: E. coli cells superexpressing MazF; experiment: Oxygen consumption assay, coexpression with MazF; conditions: cells coexpressing MazF and recombinant SamF; 1 mM IPTG, 1% L-arabinose, 37 °C
# Protocol: This experiment was conducted as described above (“bacterial growth assay”). However, 90 min after induction of recombinant samF with 1 mM IPTG, an aliquot of 1 mL of a cell suspension containing approximately 2.5 million cells was removed from each culture and placed into the chamber of an Oroboros O2K oxygraph (Bioplast) instrument. After equilibration of the oxygen consumption rate, mazF expression was induced by the addition of 1% of L-arabinose, and the consumption rate and amount of dissolved oxygen was monitored for a period of about 3 h. The experiment was carried out at 37 °C under orbital shaking at 200 rpm and repeated at least three times.
# [4] = system: E. coli cells superexpressing MazF; experiment: Glucose uptake assay (2-NBDG, flow cytometry), coexpression with MazF; conditions: cells coexpressing MazF and recombinant SamF, 400 μM 2-NBDG
# Protocol: This experiment was carried out as described above (“bacterial cell growth assay”). However, 1 h after mazF induction with 1% of L-arabinose, cells were harvested by centrifugation (10 min/4,500 rpm/4 °C). The cell pellet was resuspended in 5 mL of M9 media without glucose or any other carbon source (M9^–glucose). Cells were pelleted again and resuspended in M9^–glucose as above. Ten million cells were removed from this solution in a final volume of 5 mL of M9^–glucose and incubated with 400 μM of the fluorescent glucose analog 2-NDBG (Thermofisher) at 37 °C/300 rpm. Aliquots of 0.5 mL were taken at 1 h intervals for a period of 3 h. To remove the noninternalized 2-NBG dye, cells were centrifuged (10 min/4,500 rpm/4 °C) and the supernatant was removed. After a new wash step with 1 mL of M9^–glucose, the cell pellet was resuspended in 0.5 mL of M9^–glucose. Cells were placed on ice until all samples were collected and then immediately subjected to flow cytometry on a BD FACS Canto II system (BD Biosciences) with an excitation/emission wavelength at 488/530 nm. The percentage of cells labeled with 2-NGDG was calculated relative to the fluorescence of the stainless control with FlowJo software.
sequence,measurement,setting,value
"MSHLFWAQFDEYF [recombinant SamF, recombinantly expressed SamF ([…]) from pET-24a-samF in E. coli]",Time to complete reduction of resazurin,[1],3 to 4 h
same,Survival of cells coexpressing MazF and the peptide under ciprofloxacin (result in words),[2],almost eradicated after only 1 h
same,Oxygen consumption rate after mazF induction,[3],20 pmol/s
same,Percentage of cells labeled with 2-NBDG,[4]; first hour,64%
same,Percentage of cells labeled with 2-NBDG,[4]; second hour,87%
same,Percentage of cells labeled with 2-NBDG,[4]; third hour,96%
